Data: patent US6476012B2, “Estradiol-16α-carboxylic acid esters as locally active estrogens” (Yale University, priority 2001, dated 2002)
“And” between values parts separate entries of the source, which are not always exact repeats. Equal values may be shown once. Where a name gives a salt, the structure may show the parent alone.

Key:
[1] = system: alkaline phosphatase (AlkP) induction in Ishikawa cells; experiment: Estrogenic potency in Ishikawa cells: induction of AlkP; type: cell-based, human; conditions: for Ishikawa Cell AlkP RSA (relative stimulatory activity): induction of AlkP, E2 = 100, ± S.D.
Description: Estrogenic Potency in Ishikawa Cells. The estrogenic potency of the E2-analogs was determined in a estrogen bioassay, the induction of AlkP in human endometrial adenocarcinoma cells (Ishikawa) grown in 96-well microtiter plates as we have previously described.^28 In short, the cells are grown in phenol red free medium with estrogen depleted (charcoal stripped) bovine serum in the presence or absence of varying amounts of the steroids. […] After 3 days, the cells are washed, frozen and thawed, and then incubated with 5 mM p-nitrophenyl phosphate, a chromogenic substrate for the AlkP enzyme, at pH 9.8. To ensure linear enzymatic analysis, the plates are monitored kinetically for the for the production of p-nitrophenol at 405 nm. The relative stimulatory activity is determined by analysis of the curve fitting program Prism. Each compound was analyzed in at least 3 separate experiments performed in duplicate.

[2] = target: T1, ER in rat uterine cytosol (ERα) (Rattus norvegicus, UniProt P06211); experiment: Competitive binding to the ER in rat uterine cytosol (RBA vs [3H]E2); conditions: for ER RBA (relative binding affinity): rat uterine estrogen receptor assay, E2 = 100, ± S.D.; for binding to the ER / RBA: uterine cytosol (ERα); for RBA: relative to E2
T1 construct: The uterus was removed and homogenized in ice-cold TEGDMo buffer; from tissue; host or cells: uterine cytosol of castrated female Sprague Dawley rats
T1 sequence (P06211 1-600): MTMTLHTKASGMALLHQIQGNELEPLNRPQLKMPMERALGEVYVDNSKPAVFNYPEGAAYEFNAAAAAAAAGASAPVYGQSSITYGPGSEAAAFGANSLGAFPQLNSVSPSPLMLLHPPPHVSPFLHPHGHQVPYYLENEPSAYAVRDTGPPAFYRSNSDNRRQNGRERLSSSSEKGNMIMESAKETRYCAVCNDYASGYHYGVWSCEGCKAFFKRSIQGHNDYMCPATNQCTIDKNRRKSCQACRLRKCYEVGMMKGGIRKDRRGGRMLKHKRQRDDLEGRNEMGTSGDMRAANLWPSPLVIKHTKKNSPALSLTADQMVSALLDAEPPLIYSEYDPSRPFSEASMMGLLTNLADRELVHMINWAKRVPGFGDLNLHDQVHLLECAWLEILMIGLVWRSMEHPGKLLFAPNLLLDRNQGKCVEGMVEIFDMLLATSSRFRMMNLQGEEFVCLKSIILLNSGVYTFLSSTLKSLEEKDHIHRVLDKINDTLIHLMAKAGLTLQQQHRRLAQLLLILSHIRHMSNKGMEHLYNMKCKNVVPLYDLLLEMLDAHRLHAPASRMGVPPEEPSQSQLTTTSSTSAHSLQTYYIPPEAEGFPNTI
Description: Competitive Binding to the Estrogen Receptor ERα and ERβ. […] The ER in uterine cytosol is ERα the classical form of the ER.^38 Female Sprague Dawley rats were castrated and sacrificed 24 h later. The uterus was removed and homogenized in ice-cold TEGDMo buffer (10 mM Tris, 1.5 mM Na2-EDTA, 10% (v/v) glycerol, 1.0 mM dithiothreitol, 25 mM sodium molybdate, pH 7.4 at 4° C.). and centrifuged at 105,000 g for 45 min at 4° C. The supernatant (cytosol) was frozen on dry ice and stored at −80° C. until assay. […] Incubations were carried out on ice overnight and bound radioactivity was separated from free by adsorption with dextran coated charcoal and quantified by counting.^26 Relative Binding Affinity (RBA) was determined by analysis of the displacement curves by the curve-fitting program Prism (Graph-Pad Software inc., San Diego, Calif.). The results shown in Table 1. below, are from at least 3 separate experiments performed in duplicate.

[3] = system: esterase(s) in rat hepatic microsomes; experiment: Esterase assay with rat hepatic microsomes; type: in vitro ADME; conditions: rat hepatic microsomes, E16-1,2 = 100; ± S.D.
Description: Esterase. Esterase activity was measured in rat hepatic microsomes essentially using the conditions described.^39 Liver obtained from Sprague-Dawley rats was washed with phosphate buffered saline and homogenized in 3 volumes of cold 0.25 M sucrose and centrifuged at 700 g for 10 min and then at 10,000 g for 20 min. The resulting supernatant was centrifuged at 105,000 g for 60 min. The pellet was suspended in 0.1 M phosphate buffer pH 7.4 and washed by centrifugation at 105,000 g for 60 min. The washed pellet was suspended in 0.1 M Tris-HCl pH 8.0 at a concentration of ˜13 mg protein/ml and frozen at −80° C. For assay, the pellets were thawed and diluted with the same buffer. The incubation mixture consisted of the microsomal enzyme preparation, 0.28 mg protein/ml, E2-16α-alkyl esters, 50 μM, added in 10 μL of ethanol, all in a final volume of 1 mL of Tris buffer pH 8.0. Since the rates of reaction are widely different for the various esters, the incubation times were varied accordingly to obtain linear kinetics. At several appropriate time points, 100 μL aliquots were withdrawn and the reaction was quenched with 33 μL CH3CN, followed by a 33 μL of a solution of THF containing 1 […] of the internal standard, 6-ketoestradiol. The quenched aliquot was centrifuged for several minutes on bench-top centrifuge and 80 μl of the supernatant was analyzed for the esterase-hydrolysis product (the corresponding E2-16α-carboxylic acid: E16-1,0 8; E16-2,0 23; E16-3,0 35) by reversed phase HPLC with system H-10 for E2-16-1 and E2-16-2 esters, and with system H-15 for E2-16-3 esters. The E2-16α-carboxyl products, (Rt for E16-1,0 8=7 min and for E16-2,0 23=9 min, E16-3,0 35=6.5 min) and the internal standard, 6-ketoestradiol (Rt 7.5 min in system H-10, and 5 min in system H-15) were quantified at 280 nm on the HPLC UV detector. The UV absorbance was converted to moles of product by comparison to standard curves and corrected for recovery of the internal standard, 6-ketoestradiol. The velocity of the reaction for each ester, in nmol product/min/ml/ was then normalized to the ester, E16-1,2 10 and is shown in Table 1 as relative hydrolytic activity (RHA). The enzymatic velocity for the hydrolysis of E16-1,2 10 was 0.9±0.2 (S.D.) nmol product/min/ml over the various experiments. Since all of the esters could not be tested simultaneously, in each case we compared the rate of hydrolysis of the test compound to that of E16-1,2 10 run concurrently. All compounds were tested in triplicate in 3 separate experiments.

SMILES | RSA (estrogenic potency compared to E2) ([1]; Ishikawa AlkP) | Ishikawa Cell AlkP RSA (relative stimulatory activity) [1] | ER RBA (relative binding affinity) [2] | binding to the ER [2] | RBA [2] | Esterase RHA (relative hydrolytic activity) [3]
C[C@]12CC[C@@H]3c4ccc(O)cc4CC[C@H]3[C@@H]1CCC2=O [Compound E1, estrone, reference compound] | 7% | 7 ± 2 |  |  |  | 
C[C@]12CC[C@@H]3c4ccc(O)cc4CC[C@H]3[C@@H]1C[C@@H](C(=O)O)[C@@H]2O [E16-1,0, 3,17β-dihydroxyestra-1,3,5(10)-trien-16α-carboxylic acid] |  | 0 | 0 | None of the parent carboxylic acid analogs, E16-1,0, E16-2,0 and E16-3,0 showed significant binding |  | 
C[C@]12CC[C@@H]3c4ccc(O)cc4CC[C@H]3[C@@H]1C[C@@H](C(=O)OCC(F)(F)F)[C@@H]2O [E16-1,2F3, 2′,2′,2′-Trifluoroethyl (3,17β-dihydroxyestra-1,3,5(10)-trien-16α-yl) formate] |  | 3 ± 1 | 7 ± 1 |  | 7% | 8,200 ± 1,800
CCCOC(=O)[C@@H]1C[C@H]2[C@@H]3CCc4cc(O)ccc4[C@H]3CC[C@]2(C)[C@H]1O [E16-1,3, Propyl (3,17β-dihydroxyestra-1,3,5(10)-trien-16α-yl) formate] |  | 2 ± 0 | 34 ± 9 |  |  | 230 and 230 ± 50
CC(C)OC(=O)[C@@H]1C[C@H]2[C@@H]3CCc4cc(O)ccc4[C@H]3CC[C@]2(C)[C@H]1O [E16-1,3i, Isopropyl (3,17β-dihydroxyestra-1,3,5(10)-trien-16α-yl) formate] |  | 0.1 ± 0.06 | 7 ± 4 |  | 7% | 140 and 140 ± 10
CCCCOC(=O)[C@@H]1C[C@H]2[C@@H]3CCc4cc(O)ccc4[C@H]3CC[C@]2(C)[C@H]1O [E16-1,4, n-Butyl (3,17β-dihydroxyestra-1,3,5(10)-trien-16α-yl) formate] |  | 1 ± 0 | 28 ± 17 |  | 28% | 350 ± 50
CC(C)(C)COC(=O)[C@@H]1C[C@H]2[C@@H]3CCc4cc(O)ccc4[C@H]3CC[C@]2(C)[C@H]1O [E16-1,5neo] |  | 1 ± 0.6 | 14 ± 3 |  | 7% | 50 and 50 ± 5
C[C@]12CC[C@@H]3c4ccc(O)cc4CC[C@H]3[C@@H]1C[C@@H](CC(=O)O)[C@@H]2O [E16-2,0, 3,17β-Dihydroxyestra-1,3,5(10)-trien-16α-yl acetic acid] |  | 0 | 0 | None of the parent carboxylic acid analogs, E16-1,0, E16-2,0 and E16-3,0 showed significant binding |  | 
COC(=O)C[C@@H]1C[C@H]2[C@@H]3CCc4cc(O)ccc4[C@H]3CC[C@]2(C)[C@H]1O [E16-2,1, Methyl 3,17β-dihydroxyestra-1,3,5(10)-trien-16α-yl acetate] |  | 0.5 ± 0.1 | 5 ± 2 |  | 5% | 340 ± 30
C[C@]12CC[C@@H]3c4ccc(O)cc4CC[C@H]3[C@@H]1C[C@@H](CCC(=O)O)[C@@H]2O [E16-3,0, 3-(3,17β-dihydroxyestra-1,3,5(10)-trien-16α-yl)propanioc acid] |  | 0 | 0.1 ± 0.1 | None of the parent carboxylic acid analogs, E16-1,0, E16-2,0 and E16-3,0 showed significant binding |  | 
